Changes are numbered by the printed parent chain.
Columns and labels:
[1] = biological target: T1, CXCR3 H202A (ECL2) (Homo sapiens, UniProt P49682, H202A); assay: Whole-cell 125I-CXCL11 binding assay, L1.2 transfectants; settings: 0.1 nM 125I-CXCL11, read-out: IC50 ligand binding (mean ± SEM)
T1 construct: expressed in transfected cells; host or cells: murine pre-B cell line L1.2, transient transfection
T1 sequence (P49682 1-368 H202A): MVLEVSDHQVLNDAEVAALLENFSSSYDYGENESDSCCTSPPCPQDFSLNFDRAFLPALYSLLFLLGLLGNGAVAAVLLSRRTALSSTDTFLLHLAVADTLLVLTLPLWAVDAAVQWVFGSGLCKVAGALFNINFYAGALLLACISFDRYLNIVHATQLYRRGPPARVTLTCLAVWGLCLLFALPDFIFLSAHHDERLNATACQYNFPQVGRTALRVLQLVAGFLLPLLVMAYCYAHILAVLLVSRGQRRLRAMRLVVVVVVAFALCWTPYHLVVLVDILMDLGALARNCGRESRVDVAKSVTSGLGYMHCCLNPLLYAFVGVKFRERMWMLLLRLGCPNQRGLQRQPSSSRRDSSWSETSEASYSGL

[2] = biological target: T2, CXCR3 I279A (Homo sapiens, UniProt P49682, I279A); assay: Chemotaxis assay, L1.2 transfectants migrating to CXCL11; format: cell-based
T2 construct: expressed in transfected cells; host or cells: murine pre-B cell line L1.2, transient transfection
T2 sequence (P49682 1-368 I279A): T1 sequence (P49682 1-368 H202A) with A202H, I279A

[3] = biological target: T3, CXCR3 Y60A (Homo sapiens, UniProt P49682, Y60A); assay: as above; format: cell-based
T3 construct: expressed in transfected cells; host or cells: murine pre-B cell line L1.2, transient transfection
T3 sequence (P49682 1-368 Y60A): T1 sequence (P49682 1-368 H202A) with Y60A, A202H

[4] = biological target: T4, CXCR3 Y308A (Homo sapiens, UniProt P49682, Y308A); assay: as above; format: cell-based; settings: 30 nM CXCL11
T4 construct: expressed in transfected cells; host or cells: murine pre-B cell line L1.2, transient transfection
T4 sequence (P49682 1-368 Y308A): T1 sequence (P49682 1-368 H202A) with A202H, Y308A

[5] = biological target: T5, WT CXCR3 (Homo sapiens, UniProt P49682); assay: as above; format: cell-based
T5 construct: expressed in transfected cells; host or cells: murine pre-B cell line L1.2, transient transfection by electroporation
T5 sequence (P49682 1-368): T1 sequence (P49682 1-368 H202A) with A202H

[6] = biological target: T1, CXCR3 H202A (ECL2); assay: as above; format: cell-based
[7] = biological target: T6, CXCR3 F131A (Homo sapiens, UniProt P49682, F131A); assay: Whole-cell 125I-CXCL11 binding assay, L1.2 transfectants; settings: 0.1 nM 125I-CXCL11, read-out: IC50 ligand binding (mean ± SEM)
T6 construct: expressed in transfected cells; host or cells: murine pre-B cell line L1.2, transient transfection
T6 sequence (P49682 1-368 F131A): T1 sequence (P49682 1-368 H202A) with F131A, A202H

[8] = biological target: T6, CXCR3 F131A; assay: Chemotaxis assay, L1.2 transfectants migrating to CXCL11; format: cell-based
[9] = 30 nM CXCL11, read-out: IC50 chemotaxis (mean ± SEM)

IC50 [1]	IC50 [2, 9]	IC50 [3, 9]	increase in IC50 value, chemotaxis ([4]; Y308A versus WT)	IC50 ([4]; Y308A, read-out: IC50 chemotaxis (mean ± SEM))	IC50 ([5]; WT CXCR3, 30 nM CXCL11, read-out: IC50 chemotaxis (mean ± SEM))	IC50 ([6]; H202A (ECL2), 30 nM CXCL11, read-out: IC50 chemotaxis (mean ± SEM))	increase in IC50 value, chemotaxis ([6]; H202A versus WT, 30 nM CXCL11)	IC50 [7]	IC50 [8, 9]	% of WT chemotaxis to 30 nM CXCL11 (mean ± SEM) [2]	% of WT chemotaxis to 30 nM CXCL11 (mean ± SEM) [3]	optimum concentration of bell-shaped chemotaxis response ([5]; WT CXCR3)	% of WT chemotaxis to 30 nM CXCL11 (mean ± SEM) ([5]; WT CXCR3, 30 nM CXCL11)	% of WT chemotaxis to 30 nM CXCL11 (mean ± SEM) ([6]; H202A)	% of WT chemotaxis to 30 nM CXCL11 (mean ± SEM) [8]	Molecule
25.3 ± 10.2 µM	10.5 ± 3.35 µM	10.2 ± 4.62 µM	twofold	41.4 ± 22.6 µM	15.8 ± 3.1 µM	32.7 ± 14 µM	twofold	23.3 ± 6.57 µM	15 ± 6.98 µM	–	–	–	–	–	–	Cc1ccc(-c2ccc3c(c2)C=C(C(=O)Nc2ccc(C[N+](C)(C)C4CCOCC4)cc2)CCC3)cc1.[Cl-] [TAK-779, N,N-dimethyl-N-[4-[[[2-(4-methylphenyl)-6,7-dihydro-5H-benzocyclohepten-8-yl]-carbonyl]amino]benzyl] tetrahydro-2H-pyran-4-aminium chloride]
–	–	–	–	–	–	–	–	–	–	51.3 ± 6.2%	55.4 ± 16.4%	30 nM	100 ± 4.32%	66.0 ± 34.8%	53.7 ± 5.6%	CXCL11: recombinant human chemokine, CXCR3 agonist, purchased from PeproTech

Source: article PMC4376459, “CXCR3 antagonist VUF10085 binds to an intrahelical site distinct from that of the broad spectrum antagonist TAK-779” (British Journal of Pharmacology, 2015)
